assay: Inhibition of pTACE

Going from Cc1cc(COc2ccc(C(=O)Nc3ccccc3C(=O)c3c[nH]c(=O)[nH]3)cc2)c2ccccc2n1 [4-((2-methylquinolin-4-yl)methoxy)-N-(2-(2-oxo-2,3-dihydro-1H-imidazole-5-carbonyl)phenyl)benzamide] to Cc1cc(COc2ccc(C(=O)Nc3ccccc3Cc3c[nH]c(=O)[nH]3)cc2)c2ccccc2n1 [4-((2-methylquinolin-4-yl)methoxy)-N-(2-((2-oxo-2,3-dihydro-1H-imidazol-5-yl)methyl)phenyl)benzamide], the IC50 rises from 9 nM to 1600 nM (180-fold). The first is the more potent here.

First: Cc1cc(COc2ccc(C(=O)Nc3ccccc3Cc3n[nH]c(=O)[nH]3)cc2)c2ccccc2n1 [4-((2-methylquinolin-4-yl)methoxy)-N-(2-((5-oxo-4,5-dihydro-1H-1,2,4-triazol-3-yl)methyl)phenyl)benzamide]
Second: Cc1cc(COc2ccc(C(=O)Nc3ccccc3-c3[nH]c(=O)[nH]c3O)cc2)c2ccccc2n1 [N-(2-(2,5-dioxoimidazolidin-4-yl)phenyl)-4-((2-methylquinolin-4-yl)methoxy)benzamide]
The IC50 of the first is 2.4-fold higher: 34 nM for the first, 14 nM for the second. The second is the more potent here.

Compared with Cc1cc(COc2ccc(C(=O)NCc3n[nH]c(=O)[nH]3)cc2)c2ccccc2n1 [4-((2-methylquinolin-4-yl)methoxy)-N-((5-oxo-4,5-dihydro-1H-1,2,4-triazol-3-yl)methyl)benzamide], Cc1cc(COc2ccc(S(=O)(=O)NCc3n[nH]c(=O)[nH]3)cc2)c2ccccc2n1 [4-((2-methylquinolin-4-yl)methoxy)-N-((5-oxo-4,5-dihydro-1H-1,2,4-triazol-3-yl)methyl)benzenesulfonamide] is lower in IC50: > 1000 nM for the first, 439 nM for the second. The second is the more potent here.

Cc1cc(COc2ccc(C(=O)NCC3(C)NC(=O)NC3=O)cc2)c2ccccc2n1 (stereo not drawn) [N-((4-methyl-2,5-dioxoimidazolidin-4-yl)methyl)-4-((2-methylquinolin-4-yl)methoxy)benzamide] and Cc1cc(COc2ccc(S(=O)(=O)NCC3(C)NC(=O)NC3=O)cc2)c2ccccc2n1 (stereo not drawn) [N-((4-methyl-2,5-dioxoimidazolidin-4-yl)methyl)-4-((2-methylquinolin-4-yl)methoxy)benzenesulfonamide] are within 1.5-fold of each other in IC50: 29 nM for the first, 37 nM for the second.
